We go through four compounds from US20240368575A1, “AN ENGINEERED YEAST CELL FOR THE DELIVERY OF ANTIBIOTIC-INACTIVATING ENZYMES” (priority 2021, published 2024).

The target in data set [1] is P3A variant of the beta-lactamase from Bacillus licheniformis 749/C (BL), SEQ ID NO: 12 (Bacillus licheniformis, UniProt P00808, D288N). Put plainly: Steady-state kinetic parameters of purified BL (P3A) beta-lactamase, ampicillin hydrolysis. In kind it is biochemical. As to conditions: purified BL protein; assay with ampicillin, 30° C., 50 mM HEPES pH 7.5.
Sequence of P3A variant of the beta-lactamase from Bacillus licheniformis 749/C (BL), SEQ ID NO: 12 (P00808 46-307 D288N): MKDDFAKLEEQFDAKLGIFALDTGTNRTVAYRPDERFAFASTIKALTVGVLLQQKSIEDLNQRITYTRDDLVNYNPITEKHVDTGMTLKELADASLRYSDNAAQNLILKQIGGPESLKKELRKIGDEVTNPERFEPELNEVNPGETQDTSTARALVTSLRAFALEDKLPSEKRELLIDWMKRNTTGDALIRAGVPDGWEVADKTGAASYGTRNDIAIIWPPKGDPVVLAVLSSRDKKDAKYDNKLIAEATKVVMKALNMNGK
Data set [2] concerns the target VIM-2 metallo-beta-lactamase variant (BL2), SEQ ID NO:115 (parent VIM-2, SEQ ID NO:8) (Pseudomonas aeruginosa, UniProt Q9K2N0, E156D/Q48H/Q60R/V27S/V36A). Put plainly: Steady-state kinetic parameters of purified BL2 beta-lactamase, imipenem hydrolysis. The note with it: purified BL2 protein; assay with imipenem, 30° C., 50 mM HEPES pH 7.5, 50 μM ZnSO4. In kind it is biochemical. On the procedure: β-lactamase genes bl2 and bl3, encoding respectively the metallo β-lactamases VIM-2 variant of amino acid sequence SEQ ID NO:115 and BcII from Bacillus cereus of amino acid sequence SEQ ID NO:117, were heterologously expressed in S. boulardii.
Each sample was measured in triplicates.

Data set [3] has as its system C[C@@H](O)[C@H]1C(=O)N2C(C(=O)O)=C(SCCN=CN)C[C@H]12. Put plainly: purified protein, by the assay type. The note with it: other: purified BL3 protein, assay with imipenem, 30° C., 50 mM HEPES pH 7.5, 50 μM ZnSO4.
In data set [4] the test system is CC1(C)S[C@@H]2[C@H](NC(=O)[C@H](N)c3ccccc3)C(=O)N2[C@H]1C(=O)O. Put plainly: Steady-state kinetic parameters of purified BL (P3A) beta-lactamase, ampicillin hydrolysis. As to conditions: other: purified BL protein, assay with ampicillin, 30° C., 50 mM HEPES pH 7.5. The format is biochemical, Bacillus licheniformis 749/C.

What is called kcat is the maximal rate divided by the concentration of active sites. With `CC1(C)S[C@@H]2[C@H](NC(=O)[C@H](N)c3ccccc3)C(=O)N2[C@H]1C(=O)O` [ampicillin], the kcat in data set [1] was 1,345 s^−1.

As a reminder, the Km is the concentration of substrate that gives half-maximal velocity. Take `C[C@@H](O)[C@H]1C(=O)N2C(C(=O)O)=C(SCCN=CN)C[C@H]12` [imipenem]: in data set [2], the Michaelis constant (Km) worked out at 12 µM and the turnover number (kcat) was 200 s⁻¹.

“BcII metallo-beta-lactamase from Bacillus cereus (BL3), SEQ ID NO:117 (Bacillus cereus)”: in data set [3], the Km was found to be 220 µM and the catalytic constant (kcat) stood at 115 s⁻¹.

In the case of “P3A variant of the beta-lactamase from Bacillus licheniformis 749/C (BL), SEQ ID NO: 12 (Bacillus licheniformis; D288N)”, the Km in data set [4] was found to be 180 µM.
